From patent US11103525B2, “Idoxuridine and its analogs as neuroprotectans for the treatment of parkinsonism” (priority 2017, dated 2021)

What was measured:
Type in all cases: cell-based, mouse
[1] = tested on: N2a-WT cells; test: Cytoprotection against 6-OHDA (MTT assay), N2a-WT cells; settings: 2 μM pretreatment 72 h, then 6-OHDA 24 h
Method: FIG. 6. GPR37-associated cytoprotection of Idoxuridine against parkinsonian drug 6-OHDA. N2a-WT and N2a-GPR37-tGFP cells were grown in differentiating medium containing either 2 μM idoxuridine, 0.1% DMSO (negative control) or 1 mM dbcAMP (positive control). 72 h later cells were treated with either 6-OHDA (10, 20, 35 100 μM) or vehicle control and incubated for 24 h. Cell viability was quantified by MTT assay. Data are pooled from three independent experiments with 6 technical replicates for each condition and are expressed as means+/−SD. To assess the […] effect of idoxuridine against 6-OHDA-toxicity data were analyzed using a 2-way ANOVA followed by a Bonferroni correction test. Each cell line was statistically analyzed separately, with pretreatment and 6-OHDA treatment as variables; or GPR37 expression and 6-OHDA-treatment as variables. For simplicity, only idoxuridine related significance is indicated; significances between positive and negative controls are not shown; ****p<0.0001, ***p<0.001, **p<0.01. Test compound (5 μL) of desired concentration (Idoxuridine, final concentration 2 μM); positive control (dibutyryl-cAMP, final concentration 1 mM); and negative control (DMSO, final concentration 0.1%) were plated in a 96-well plate. […] Absorbance was measured at 570 nm (formazan product) and at 650 nm (reference) using a Tecan Spark® 10M microplate reader. […]

[2] = tested on: GPR37-tGFP; test: GPR37-tGFP translocation assay; settings: 72 h
Method: FIG. 2. Schematic representation of the rationale and the basic steps of GPR37-translocation assay. A. GPR37 is prone to misfolding and aggregation, which, in metabolically-active cells, are followed by degradation and results in low levels of functional receptor in the plasma membrane. The primary targets of the screening assay are compounds that can directly or indirectly facilitate maturation and trafficking of GPR37 to the plasma membrane. B. N2a cells stably expressing GPR37-tGFP are seeded in poly-D-Lysine coated 384 well plates at density 5000 cells/well. 24 h later cells are treated with compounds, including positive and negative controls, and incubated for 72 h. Then cells are fixed with 4% PFA and additionally stained with Hoechst 33342 (nuclei) and HCS CellMask™ red (cell body) to enable segmentation of the plasma membrane. Acquisition of fluorescence images is done using ImageXpress high content screening system (Molecular Devices). Quantification of GPR37-tGFP levels in the plasma membrane is done using CellProfiler software. FIG. 3. Schematic representation of Image analysis pipeline and final outcome data. Segmentation of the plasma membrane is performed in five main steps: 1) identification of nuclei (primary objects) using nuclear stain, 2) determination of cell borders using primary objects as seeds and growing these objects in respect of tGFP and HCS CellMask™ fluorescence intensity (secondary objects), 3) shrinking and expending secondary objects, 4) subtraction of shrunken cells from expended cells which results in membrane segmentation (tertiary objects), 5) tGFP fluorescence intensity is calculated within tertiary objects. Z′ factor is a quality measure of an assay which describes how well separated positive and negative controls are. Assays having Z′ factors above 0.5 are considered good assays. N2a cells stably expressing GPR37-tGFP were seeded in 384 BDFalcon BioCoat Poly-D-Lysine coated plates at a density of 5000 cells/well, and 50 μL incubation volume of maintenance medium. Cells were incubated at 37° C., 5% CO2 using humidity chamber. 24 h later, the cells were treated with 10 μL of compounds of desired concentration, including positive (2 mM dibutyryl-cAMP+0.5 mM 4-phenylbutyrate) and negative controls (0.1% DMSO), and incubated for 72 h. Cells were fixed with 4% PFA by adding 20 μL of 16% PFA directly to cell medium, incubating for 20 min and washing with PBS-Tween20 (0.05%). Directly after fixation cells were stained for nuclei with Hoechst 33342 (0.01 mg/mL) and for cell bodies with HCS CellMask™ Red stain (Thermo Fisher Scientific Inc.) (0.001 mg/mL) by incubating with the dyes for 30 min in PBS-Tween20 (0.05%) followed by washing with PBS. All the additional steps, including cell seeding were performed using Multidrop Combi dispenser (Thermo Scientific) and washing steps were done by means of HydroSpeed™ plate washer (Tecan). The images were captured using ImageXpress Micro XLS Widefield High-Content Analysis System (Molecular Devices, LLC) in 3 fluorescent channels (ImageXpress filters are listed, followed by excitation/emission in nm): DAPI (387/447), FITC (482/536) and TexasRed (562/624). Binning 2 was applied during the acquisition and digital confocal option was used for FITC and TexasRed filters. Typically, 5 images were taken per well at magnification 20× and stored as 16 bit, gray scale tif files along with metadata in Oracle database, for further analysis. Quantification of GPR37-tGFP levels in the plasma membrane was done using CellProfiler™ software. CellProfiler™ is an open-source cell image analysis software available at www.cellprofiler.org. An image analysis pipeline used for membrane segmentation consisted of 5 main steps (FIG. 3): 1) segmentation of nuclei (primary objects); 2) segmentation of cell bodies (secondary objects); 3) shrinking and expending cell bodies; 4) subtraction of shrank cells from expanded cells (tertiary objects—membranes); 5) calculating tGFP fluorescence in the membranes. […]

[3] = tested on: wildtype cells; test: Cytoprotection against MG132, wildtype cells
Method: FIG. 8: Cytoprotection of Idoxuridine against MG132. MG132-induced proteasomal inhibition reduced cell viability. […] Data represented as mean+SD. Analysis performed via one-way ANOVA with Neuman-Keuls post-test for both Figures. *** indicates p<0.001. 2 mM 4-PBA used as a positive unspecific control. MG132 is a potent 26S proteasome inhibitor which increases protein accumulation, ROS leakage, induces cell cycle arrest and apoptosis.

- EC50 ([2]; dose response, read-out: concentration giving 50% activity of positive control (GPR37-tGFP level at the plasma membrane)): ~1000 nM
SMILES: O=c1[nH]c(=O)n([C@H]2C[C@H](O)[C@@H](CO)O2)cc1I [Idoxuridine, 2′-deoxy-5-iodouridine]
- cytoprotective effect against 6-OHDA (cell viability, MTT) [1]: protective
- concentration up to which GPR37-tGFP level at the plasma membrane increases in a dose response manner ([2]; dose response): around 5 μM
- GPR37-tGFP level in the plasma membrane, activity of positive control ([2]; primary screen, 10 μM, positive control (dibutyryl-cAMP + 4-phenylbutyrate) = 100%): about 100%
- effect on MG132-induced reduction of cell viability [3]: some neuroprotection
